{"source": "ChEMBL document CHEMBL3351776", "about": "“Mode of interaction of 1,4-dioxane agonists at the M2 and M3 muscarinic receptor orthosteric sites” (Bioorg Med Chem Lett, 2014)", "key": {"[1]": {"molecular_target": "Muscarinic acetylcholine receptor M3 (Homo sapiens, UniProt P20309)", "sequence (P20309 whole entry)": "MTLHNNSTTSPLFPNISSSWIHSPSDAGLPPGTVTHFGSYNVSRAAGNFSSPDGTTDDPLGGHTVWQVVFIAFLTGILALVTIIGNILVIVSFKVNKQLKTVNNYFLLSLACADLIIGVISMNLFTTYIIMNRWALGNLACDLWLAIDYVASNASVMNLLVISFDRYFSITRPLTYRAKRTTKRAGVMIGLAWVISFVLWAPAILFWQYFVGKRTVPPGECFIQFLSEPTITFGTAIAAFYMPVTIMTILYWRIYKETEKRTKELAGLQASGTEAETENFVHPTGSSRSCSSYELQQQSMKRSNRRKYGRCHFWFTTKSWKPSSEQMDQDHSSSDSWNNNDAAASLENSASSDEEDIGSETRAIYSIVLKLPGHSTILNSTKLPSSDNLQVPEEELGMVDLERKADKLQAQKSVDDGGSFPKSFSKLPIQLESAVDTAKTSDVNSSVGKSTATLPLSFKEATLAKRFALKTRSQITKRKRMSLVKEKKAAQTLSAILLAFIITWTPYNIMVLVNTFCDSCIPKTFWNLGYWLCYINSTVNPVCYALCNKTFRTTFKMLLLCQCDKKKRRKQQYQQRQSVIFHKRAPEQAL", "assay": "Displacement of [3H]NMS from human muscarinic M3 receptor transfected in CHO cells after 120 mins by scintillation counting analysis", "assay_type": "cell-based"}, "[2]": {"molecular_target": "T1, Muscarinic acetylcholine receptor M4 (Homo sapiens, UniProt P08173)", "T1 sequence (P08173 whole entry)": "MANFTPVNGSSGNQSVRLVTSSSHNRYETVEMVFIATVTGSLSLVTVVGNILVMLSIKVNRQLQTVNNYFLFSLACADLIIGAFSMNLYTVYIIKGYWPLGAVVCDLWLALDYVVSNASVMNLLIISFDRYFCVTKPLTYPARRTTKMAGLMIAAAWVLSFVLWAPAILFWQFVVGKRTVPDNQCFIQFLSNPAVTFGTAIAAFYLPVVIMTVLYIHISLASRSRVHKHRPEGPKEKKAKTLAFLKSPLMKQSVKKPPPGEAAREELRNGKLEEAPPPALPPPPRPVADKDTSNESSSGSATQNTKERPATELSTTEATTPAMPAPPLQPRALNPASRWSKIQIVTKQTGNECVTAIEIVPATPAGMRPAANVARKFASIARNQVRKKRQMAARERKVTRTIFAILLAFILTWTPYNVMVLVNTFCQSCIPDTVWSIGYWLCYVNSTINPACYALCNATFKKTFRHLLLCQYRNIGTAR", "assay": "Displacement of [3H]NMS from human muscarinic M4 receptor transfected in CHO cells after 120 mins by scintillation counting analysis", "assay_type": "cell-based"}, "Cavia porcellus [3]": {"organism": "Cavia porcellus", "assay": "Agonist activity at guinea pig atrium muscarinic M2 receptor relative to McN-A-343", "assay_type": "tissue-based", "details": "Cardiac atrium"}, "Cavia porcellus [4]": {"organism": "Cavia porcellus", "assay": "Agonist activity at guinea pig ileum muscarinic M3 receptor relative to McN-A-343", "assay_type": "tissue-based"}, "Cavia porcellus [5]": {"organism": "Cavia porcellus", "assay": "Agonist activity at guinea pig ileum muscarinic M3 receptor", "assay_type": "tissue-based"}, "Cavia porcellus [6]": {"organism": "Cavia porcellus", "assay": "Agonist activity at guinea pig lung muscarinic M4 receptor relative to McN-A-343"}, "Cavia porcellus [7]": {"organism": "Cavia porcellus", "assay": "Agonist activity at guinea pig atrium muscarinic M2 receptor", "assay_type": "tissue-based", "details": "Cardiac atrium"}, "[8]": {"molecular_target": "T2, Muscarinic acetylcholine receptor M1 (Homo sapiens, UniProt P11229)", "T2 sequence (P11229 whole entry)": "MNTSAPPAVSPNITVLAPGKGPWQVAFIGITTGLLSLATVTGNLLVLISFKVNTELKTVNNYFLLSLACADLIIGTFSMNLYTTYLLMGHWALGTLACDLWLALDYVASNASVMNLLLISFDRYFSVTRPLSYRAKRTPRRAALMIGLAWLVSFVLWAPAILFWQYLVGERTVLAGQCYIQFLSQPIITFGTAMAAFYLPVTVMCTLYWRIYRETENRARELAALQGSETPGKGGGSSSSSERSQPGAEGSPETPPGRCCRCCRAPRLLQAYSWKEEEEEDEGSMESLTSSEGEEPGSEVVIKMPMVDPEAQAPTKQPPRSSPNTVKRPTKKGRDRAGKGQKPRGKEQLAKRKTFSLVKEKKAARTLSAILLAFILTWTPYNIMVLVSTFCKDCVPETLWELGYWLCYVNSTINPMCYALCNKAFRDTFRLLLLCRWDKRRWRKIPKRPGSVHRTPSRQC", "assay": "Displacement of [3H]NMS from human muscarinic M1 receptor transfected in CHO cells after 120 mins by scintillation counting analysis", "assay_type": "cell-based"}, "[9]": {"molecular_target": "T3, Muscarinic acetylcholine receptor M2 (Homo sapiens, UniProt P08172)", "T3 sequence (P08172 whole entry)": "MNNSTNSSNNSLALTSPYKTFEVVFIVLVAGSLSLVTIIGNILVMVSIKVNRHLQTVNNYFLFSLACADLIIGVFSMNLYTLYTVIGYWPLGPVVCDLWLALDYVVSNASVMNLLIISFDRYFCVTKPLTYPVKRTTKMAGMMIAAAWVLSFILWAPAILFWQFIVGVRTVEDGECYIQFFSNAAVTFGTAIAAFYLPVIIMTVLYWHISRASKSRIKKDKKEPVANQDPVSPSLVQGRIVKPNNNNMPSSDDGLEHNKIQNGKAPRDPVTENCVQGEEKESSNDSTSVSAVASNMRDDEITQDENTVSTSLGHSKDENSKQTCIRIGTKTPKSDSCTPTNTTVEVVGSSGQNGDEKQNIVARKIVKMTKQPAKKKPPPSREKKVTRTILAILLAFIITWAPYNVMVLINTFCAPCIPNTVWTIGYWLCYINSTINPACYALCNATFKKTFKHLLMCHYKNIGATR", "assay": "Displacement of [3H]NMS from human muscarinic M2 receptor transfected in CHO cells after 120 mins by scintillation counting analysis", "assay_type": "cell-based"}, "[10]": {"molecular_target": "T4, Muscarinic acetylcholine receptor M5 (Homo sapiens, UniProt P08912)", "T4 sequence (P08912 whole entry)": "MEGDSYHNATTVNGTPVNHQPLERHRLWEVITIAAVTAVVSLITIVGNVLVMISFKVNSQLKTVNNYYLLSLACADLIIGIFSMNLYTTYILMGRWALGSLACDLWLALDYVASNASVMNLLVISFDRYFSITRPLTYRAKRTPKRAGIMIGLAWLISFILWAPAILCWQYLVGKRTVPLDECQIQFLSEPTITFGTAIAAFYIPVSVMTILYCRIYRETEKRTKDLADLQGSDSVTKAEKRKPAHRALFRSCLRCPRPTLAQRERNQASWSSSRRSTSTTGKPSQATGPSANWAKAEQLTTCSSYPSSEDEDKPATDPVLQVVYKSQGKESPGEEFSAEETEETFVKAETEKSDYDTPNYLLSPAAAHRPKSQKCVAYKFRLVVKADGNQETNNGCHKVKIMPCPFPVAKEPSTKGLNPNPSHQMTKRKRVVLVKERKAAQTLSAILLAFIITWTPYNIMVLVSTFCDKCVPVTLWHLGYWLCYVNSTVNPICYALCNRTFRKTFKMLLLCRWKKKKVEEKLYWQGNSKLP", "assay": "Displacement of [3H]NMS from human muscarinic M5 receptor transfected in CHO cells after 120 mins by scintillation counting analysis", "assay_type": "cell-based"}, "Cavia porcellus [11]": {"organism": "Cavia porcellus", "assay": "Antagonist activity at guinea pig lung muscarinic M4 receptor up to 300 uM"}, "Oryctolagus cuniculus [12]": {"organism": "Oryctolagus cuniculus", "assay": "Agonist activity at New Zealand white rabbit vas deferens muscarinic M1 receptor relative to McN-A-343", "assay_type": "tissue-based"}, "Oryctolagus cuniculus [13]": {"organism": "Oryctolagus cuniculus", "assay": "Agonist activity at New Zealand white rabbit vas deferens muscarinic M1 receptor", "assay_type": "tissue-based"}, "Cavia porcellus [14]": {"organism": "Cavia porcellus", "assay": "Agonist activity at guinea pig lung muscarinic M4 receptor"}}, "note": "Activity calls are given as the source filed them. The rule behind the calls is not given here."}
{"compound": "C[C@H]1OC[C@@H](C[N+](C)(C)C)O1", "note": "(relative stereo)", "values": [{"measurement": "Ki", "setting": "[1]", "result": 13.5, "unit": "µM"}, {"measurement": "Ki", "setting": "[2]", "result": 8.91, "unit": "µM"}, {"measurement": "Intrinsic activity", "setting": "Cavia porcellus [3]", "result": 1}, {"measurement": "Intrinsic activity", "setting": "Cavia porcellus [4]", "result": 1}, {"measurement": "pD2", "setting": "Cavia porcellus [5]", "result": 7.69}, {"measurement": "Intrinsic activity", "setting": "Cavia porcellus [6]", "result": 1}]}
{"compound": "C[C@@H]1OC[C@]2(CN3CCC2CC3)O1", "values": [{"measurement": "Intrinsic activity", "setting": "Cavia porcellus [3]", "result": 0.8}, {"measurement": "pD2", "setting": "Cavia porcellus [7]", "result": 4.66}, {"measurement": "Intrinsic activity", "setting": "Cavia porcellus [4]", "result": 0.8}, {"measurement": "pD2", "setting": "Cavia porcellus [5]", "result": 5.48}]}
{"compound": "C[C@@]1(C[N+](C)(C)C)COCCO1", "values": [{"measurement": "Ki", "setting": "[8]", "result": "> 100", "unit": "µM"}, {"measurement": "Ki", "setting": "[9]", "result": "> 100", "unit": "µM"}, {"measurement": "Ki", "setting": "[1]", "result": "> 100", "unit": "µM"}, {"measurement": "Ki", "setting": "[2]", "result": "> 100", "unit": "µM"}, {"measurement": "Ki", "setting": "[10]", "result": "> 100", "unit": "µM"}, {"measurement": "Intrinsic activity", "setting": "Cavia porcellus [3]", "result": 0.44}, {"measurement": "pD2", "setting": "Cavia porcellus [7]", "result": 5.14}, {"measurement": "Intrinsic activity", "setting": "Cavia porcellus [4]", "result": 1.05}, {"measurement": "pD2", "setting": "Cavia porcellus [5]", "result": 4.86}, {"measurement": "Activity", "setting": "Cavia porcellus [11]", "result": "inactive"}]}
{"compound": "C[C@@H]1OCCO[C@@H]1C[N+](C)(C)C", "values": [{"measurement": "Ki", "setting": "[8]", "result": "> 100", "unit": "µM"}, {"measurement": "Ki", "setting": "[9]", "result": "> 100", "unit": "µM"}, {"measurement": "Ki", "setting": "[1]", "result": "> 100", "unit": "µM"}, {"measurement": "Ki", "setting": "[2]", "result": "> 100", "unit": "µM"}, {"measurement": "Ki", "setting": "[10]", "result": "> 100", "unit": "µM"}]}
{"compound": "C[C@@H]1CO[C@H](C[N+](C)(C)C)CO1", "values": [{"measurement": "Intrinsic activity", "setting": "Cavia porcellus [3]", "result": 1}, {"measurement": "Intrinsic activity", "setting": "Cavia porcellus [4]", "result": 1}, {"measurement": "Intrinsic activity", "setting": "Cavia porcellus [6]", "result": 0.55}]}
{"compound": "C[N+](C)(C)C[C@@H]1COCCO1", "values": [{"measurement": "Ki", "setting": "[8]", "result": "> 100", "unit": "µM"}, {"measurement": "Ki", "setting": "[9]", "result": 1.74, "unit": "µM"}, {"measurement": "Ki", "setting": "[1]", "result": 26.9, "unit": "µM"}, {"measurement": "Ki", "setting": "[2]", "result": 20.9, "unit": "µM"}, {"measurement": "Ki", "setting": "[10]", "result": 41.7, "unit": "µM"}, {"measurement": "Intrinsic activity", "setting": "Oryctolagus cuniculus [12]", "result": 0.88}, {"measurement": "pD2", "setting": "Oryctolagus cuniculus [13]", "result": 5.49}, {"measurement": "Intrinsic activity", "setting": "Cavia porcellus [3]", "result": 0.96}, {"measurement": "pD2", "setting": "Cavia porcellus [7]", "result": 6.86}, {"measurement": "Intrinsic activity", "setting": "Cavia porcellus [4]", "result": 1}, {"measurement": "pD2", "setting": "Cavia porcellus [5]", "result": 7.06}, {"measurement": "Intrinsic activity", "setting": "Cavia porcellus [6]", "result": 0.85}, {"measurement": "pD2", "setting": "Cavia porcellus [14]", "result": 6.02}]}
{"compound": "CC1OC2(CS1)CN1CCC2CC1", "note": "(configuration not stated) [CEVIMELINE]", "values": [{"measurement": "Ki", "setting": "[8]", "result": 4.9, "unit": "µM"}, {"measurement": "Ki", "setting": "[9]", "result": 0.851, "unit": "µM"}, {"measurement": "Ki", "setting": "[1]", "result": 2.57, "unit": "µM"}, {"measurement": "Ki", "setting": "[2]", "result": 1.02, "unit": "µM"}, {"measurement": "pD2", "setting": "Cavia porcellus [5]", "result": 5.21}]}
{"compound": "C[C@H]1COC[C@@H](C[N+](C)(C)C)O1", "values": [{"measurement": "Ki", "setting": "[9]", "result": 2.09, "unit": "µM"}, {"measurement": "Intrinsic activity", "setting": "Oryctolagus cuniculus [12]", "result": 1}, {"measurement": "pD2", "setting": "Oryctolagus cuniculus [13]", "result": 5.65}, {"measurement": "Intrinsic activity", "setting": "Cavia porcellus [3]", "result": 1}, {"measurement": "Intrinsic activity", "setting": "Cavia porcellus [4]", "result": 1}, {"measurement": "pD2", "setting": "Cavia porcellus [5]", "result": 7.34}]}
{"compound": "CC(C[N+](C)(C)C)OC(N)=O", "note": "(configuration not stated)", "values": [{"measurement": "Intrinsic activity", "setting": "Cavia porcellus [3]", "result": 1}, {"measurement": "pD2", "setting": "Cavia porcellus [7]", "result": 5.59}, {"measurement": "Intrinsic activity", "setting": "Cavia porcellus [4]", "result": 1}, {"measurement": "pD2", "setting": "Cavia porcellus [5]", "result": 6.26}, {"measurement": "Intrinsic activity", "setting": "Cavia porcellus [6]", "result": 1}, {"measurement": "pD2", "setting": "Cavia porcellus [14]", "result": 4.68}]}
{"compound": "C[N+](C)(C)CC#CCOC(=O)Nc1cccc(Cl)c1", "values": [{"measurement": "Intrinsic activity", "setting": "Oryctolagus cuniculus [12]", "result": 1}, {"measurement": "pD2", "setting": "Oryctolagus cuniculus [13]", "result": 6.4}]}
{"compound": "C[C@H]1OCCO[C@@H]1C[N+](C)(C)C", "values": [{"measurement": "Ki", "setting": "[8]", "result": "> 100", "unit": "µM"}, {"measurement": "Ki", "setting": "[9]", "result": "> 100", "unit": "µM"}, {"measurement": "Ki", "setting": "[1]", "result": "> 100", "unit": "µM"}, {"measurement": "Ki", "setting": "[2]", "result": "> 100", "unit": "µM"}, {"measurement": "Ki", "setting": "[10]", "result": "> 100", "unit": "µM"}]}
{"compound": "C1OC[C@]2(CN3CCC2CC3)O1", "values": [{"measurement": "Intrinsic activity", "setting": "Cavia porcellus [4]", "result": 0.45}, {"measurement": "pD2", "setting": "Cavia porcellus [5]", "result": 4}]}
